Laboratory results taken from patent US11618747B2, “LXR modulators with bicyclic core moiety” (OrsoBio, Inc., priority 2018, dated 2023).
Where two headings read alike, the source gives them in different places.

Legend:
full length (FL) LXRβ = target: T1, full length (FL) LXRβ (Homo sapiens, UniProt P55055, DUP175-175); test: LXR Gal4 reporter transient transfection assay (FL-M2H Gal4β); assay type: cell-based; settings: HEK293 cells
T1 construct: the full length (FL) proteins of LXRα (amino acids 1-447); NP005684; NP009052; expressed in transfected cells; host or cells: HEK293
T1 sequence (P55055 with tags, fused parts or gaps DUP175-175): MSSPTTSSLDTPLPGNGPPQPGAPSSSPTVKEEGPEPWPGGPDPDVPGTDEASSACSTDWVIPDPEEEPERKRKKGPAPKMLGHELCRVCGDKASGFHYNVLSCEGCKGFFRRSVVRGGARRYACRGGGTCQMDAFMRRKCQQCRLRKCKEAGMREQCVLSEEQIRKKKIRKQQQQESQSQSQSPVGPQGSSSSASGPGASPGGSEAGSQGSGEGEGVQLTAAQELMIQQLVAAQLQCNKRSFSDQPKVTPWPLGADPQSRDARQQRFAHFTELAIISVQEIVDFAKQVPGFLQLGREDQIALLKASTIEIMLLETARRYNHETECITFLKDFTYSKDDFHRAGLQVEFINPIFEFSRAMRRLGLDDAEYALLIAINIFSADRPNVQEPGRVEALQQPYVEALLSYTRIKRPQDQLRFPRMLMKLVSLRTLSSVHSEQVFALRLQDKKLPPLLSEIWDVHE
How it was run: (§1)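 Cells (HEK293, 3.5×10^4/well) were plated 16-20 h, transfected with LXR, cofactor and reporter plasmids, treated with compound after 4 h, and lysed after a further 16 h. Interaction of LXR constructs with SRC1 or NCoR is detected by GAL4-driven Firefly luciferase.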

[1] = target: T2, LXRβ ligand-binding domain (Homo sapiens, UniProt P55055, DUP175-175); test: TR-FRETβ activity assay (NCoA3 coactivator peptide recruitment); assay type: biochemical
T2 construct: amino acids 156-461; NP009052; made in house; host or cells: E. coli
T2 sequence (P55055 with tags, fused parts or gaps DUP175-175 limits assumed): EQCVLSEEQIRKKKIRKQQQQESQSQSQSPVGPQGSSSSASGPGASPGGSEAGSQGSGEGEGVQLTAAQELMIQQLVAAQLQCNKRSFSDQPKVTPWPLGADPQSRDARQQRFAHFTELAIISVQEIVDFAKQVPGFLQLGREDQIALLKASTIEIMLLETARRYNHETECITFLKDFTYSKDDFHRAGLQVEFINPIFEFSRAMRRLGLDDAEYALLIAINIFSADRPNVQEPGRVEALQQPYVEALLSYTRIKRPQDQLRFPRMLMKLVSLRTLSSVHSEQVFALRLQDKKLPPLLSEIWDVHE
How it was run: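 Inverse agonism assessed by loss of coactivator recruitment, read as TR-FRET 665/615 nm after 1 h equilibration at 4 °C, in triplicate. Ten-point titration from 50 μM to 0.002 μM against LXRβ LBD (76 nM, GST fusion) prestimulated with 1 μM 24(S)-25-epoxycholesterol, with 400 nM NCoA3 peptide, pH 6.8. Sulfonyl acetic acids kept as 20 mM DMSO stocks with 100 mM TFA.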

full length (FL) LXRα = target: T3, full length (FL) LXRα (Homo sapiens, UniProt Q13133); test: LXR Gal4 reporter transient transfection assay (FL-M2H Gal4α); assay type: cell-based; settings: HEK293 cells
T3 construct: the full length (FL) proteins of LXRα (amino acids 1-447); NP005684; expressed in transfected cells; host or cells: HEK293
T3 sequence (Q13133 1-447): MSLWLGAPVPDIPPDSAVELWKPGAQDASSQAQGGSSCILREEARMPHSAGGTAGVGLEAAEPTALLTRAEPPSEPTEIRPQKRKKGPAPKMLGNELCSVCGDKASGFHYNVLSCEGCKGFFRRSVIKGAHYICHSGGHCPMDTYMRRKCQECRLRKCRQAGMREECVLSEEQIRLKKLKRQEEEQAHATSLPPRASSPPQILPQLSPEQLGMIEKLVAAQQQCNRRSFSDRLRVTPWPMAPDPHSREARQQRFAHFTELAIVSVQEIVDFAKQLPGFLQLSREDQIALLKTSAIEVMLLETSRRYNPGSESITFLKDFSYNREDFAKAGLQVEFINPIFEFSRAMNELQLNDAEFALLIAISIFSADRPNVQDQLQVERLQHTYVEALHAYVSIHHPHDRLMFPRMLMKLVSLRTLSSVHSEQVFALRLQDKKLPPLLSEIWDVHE
How it was run: as §1

[2] = full length LXRβ, read-out: FL-M2H Gal4β (EC50 range)
[3] = TR-FRET, 1 μM 24(S)-25-epoxycholesterol prestimulation, read-out: FRETβ (EC50 range)
[4] = full length LXRα, read-out: FL-M2H Gal4α (EC50 range)
[5] = 1 μM 24(S)-25-epoxycholesterol as prestimulating agonist
[6] = 1 μM 24(S)-25-epoxycholesterol as prestimulating agonist, read-out: FRETβ potency

N#Cc1cccc(C#N)c1-c1c(-c2cccc(-c3ccc(S(=O)(=O)O)cc3Cl)c2)n(S(=O)(=O)c2ccc(C(F)F)cc2)c2ccc(F)cc12 [12/10]
EC50 (full length (FL) LXRβ; [2]): < 100 nM | EC50 [1, 3]: < 100 nM | EC50 (full length (FL) LXRα; [4]): < 100 nM

N#Cc1sccc1-c1c(-c2cccc(-c3ccc(C(=O)O)cc3)c2)n(S(=O)(=O)c2ccc3c(c2)CCC3)c2ccc(F)cc12 [23/3]
EC50 (full length (FL) LXRβ; [2]): < 100 nM | EC50 [1, 3]: 100 to 1000 nM | EC50 (full length (FL) LXRα; [4]): < 100 nM

CC(C)(O)c1ccc(S(=O)(=O)n2c(-c3cccc(-c4ccc(C(=O)O)cc4Cl)c3)c(-c3ccccc3C#N)c3cc(F)ccc32)cc1 [30/16]
EC50 (full length (FL) LXRβ; [2]): 100 to 1000 nM | EC50 [1, 3]: 1000 to 10000 nM | EC50 (full length (FL) LXRα; [4]): 100 to 1000 nM

COC(=O)C(C)(C)N(C)C(=O)C1CN(c2cccc(-c3c(-c4ccsc4C#N)c4cc(F)ccc4n3S(=O)(=O)c3ccc(C)cc3)c2)C1 [32/2]
EC50 (full length (FL) LXRβ; [2]): 100 to 1000 nM | EC50 [1, 3]: 100 to 1000 nM | EC50 (full length (FL) LXRα; [4]): 100 to 1000 nM

Cc1ccc(S(=O)(=O)n2c(-c3cccc(-c4ccc(C(=O)NS(C)(=O)=O)cc4Cl)c3)c(-c3ccsc3C#N)c3cc(F)ccc32)cc1 [32/4]
EC50 (full length (FL) LXRβ; [2]): < 100 nM | EC50 [1, 3]: < 100 nM | EC50 (full length (FL) LXRα; [4]): < 100 nM

Cc1ccc(S(=O)(=O)n2c(-c3cccc(-c4ccc(C(=O)O)nc4C)c3)c(-c3ccsc3C#N)c3cc(F)ccc32)cc1 [36/1]
EC50 (full length (FL) LXRβ; [2]): < 100 nM | EC50 [1, 3]: 100 to 1000 nM | EC50 (full length (FL) LXRα; [4]): < 100 nM

Cc1ccc(S(=O)(=O)n2c(-c3cccc(-c4cccc(S(C)(=O)=Nc5nnn[nH]5)c4)c3)c(-c3ccsc3C#N)c3cc(F)ccc32)cc1 (stereo not drawn) [37/1]
EC50 (full length (FL) LXRβ; [2]): 100 to 1000 nM | EC50 [1, 3]: 100 to 1000 nM | EC50 (full length (FL) LXRα; [4]): 100 to 1000 nM

Cc1ccc(S(=O)(=O)n2c(-c3cccc(N4CC(C(=O)O)C4)c3)c(-c3csc(C#N)c3)c3cc(F)ccc32)cc1 [C3/29, reference compound]
FL-M2H Gal4β potency (full length (FL) LXRβ): inactive | FRETβ efficacy (value in brackets) [1, 5]: −102% | EC50 [1, 6]: 4230 nM | FL-M2H Gal4α potency (full length (FL) LXRα): inactive

O=C(O)c1ccc(-c2cccc(-c3c(-c4ccccc4)c4cc(F)ccc4n3S(=O)(=O)c3ccc(C(F)F)cc3)c2)c(Cl)c1 [C11/39, reference compound]
FL-M2H Gal4β efficacy (value in brackets) (full length (FL) LXRβ): 140% | EC50 (full length (FL) LXRβ; [2]): < 100 nM | EC50 (full length (FL) LXRβ; read-out: FL-M2H Gal4β potency): 14 nM | FRETβ efficacy (value in brackets) [1, 5]: −91% | EC50 [1, 6]: 104 nM | EC50 [1, 3]: 100 to 1000 nM | FL-M2H Gal4α efficacy (value in brackets) (full length (FL) LXRα): 117% | EC50 (full length (FL) LXRα; [4]): < 100 nM | EC50 (full length (FL) LXRα; read-out: FL-M2H Gal4α potency): 14 nM

N#Cc1cccc(-c2c(-c3cccc(-c4ccc(C(=O)O)cc4Cl)c3)n(S(=O)(=O)c3ccc(C(F)F)cc3)c3ccc(F)cc23)c1 [C11/48, reference compound]
FL-M2H Gal4β efficacy (value in brackets) (full length (FL) LXRβ): 123% | EC50 (full length (FL) LXRβ; [2]): < 100 nM | EC50 (full length (FL) LXRβ; read-out: FL-M2H Gal4β potency): 32 nM | FRETβ efficacy (value in brackets) [1, 5]: −96% | EC50 [1, 6]: 49 nM | EC50 [1, 3]: < 100 nM | FL-M2H Gal4α efficacy (value in brackets) (full length (FL) LXRα): 118% | EC50 (full length (FL) LXRα; read-out: FL-M2H Gal4α potency): 62 nM

Cc1ccc(S(=O)(=O)n2c(-c3cccc(-c4ccc(C(C(=O)O)N(C)C)cc4Cl)c3)c(-c3ccsc3C#N)c3cc(F)ccc32)cc1 (stereo not drawn) [Example 3, 2-(2-Chloro-3′-(3-(2-cyanothiophen-3-yl)-5-fluoro-1-tosyl-1H-indol-2-yl)-[1,1′-biphenyl]-4-yl)-2-(dimethylamino)acetic Acid]
EC50 (full length (FL) LXRβ; [2]): < 100 nM | EC50 [1, 3]: < 100 nM | EC50 (full length (FL) LXRα; [4]): < 100 nM
